The results in this text go back to ChEMBL document CHEMBL3734736, “A selective delta opioid receptor antagonist based on a stilbene core” (Bioorg Med Chem Lett, 2015).

pEC50: −log10 of the molar value. Active and inactive are the calls of the source. The calls are words filed in the database; no cut-off is given here.

In experiment [1] the target is Mu-type opioid receptor (Homo sapiens) (UniProt P35372). Put plainly: Agonist activity at human mu opioid receptor over-expressed in CHO cell membrane after 1 hr by [35S]GTPgammaS binding assay. The experiment is classed as functional, cell membranes.
Sequence of Mu-type opioid receptor (Homo sapiens) (P35372 whole entry): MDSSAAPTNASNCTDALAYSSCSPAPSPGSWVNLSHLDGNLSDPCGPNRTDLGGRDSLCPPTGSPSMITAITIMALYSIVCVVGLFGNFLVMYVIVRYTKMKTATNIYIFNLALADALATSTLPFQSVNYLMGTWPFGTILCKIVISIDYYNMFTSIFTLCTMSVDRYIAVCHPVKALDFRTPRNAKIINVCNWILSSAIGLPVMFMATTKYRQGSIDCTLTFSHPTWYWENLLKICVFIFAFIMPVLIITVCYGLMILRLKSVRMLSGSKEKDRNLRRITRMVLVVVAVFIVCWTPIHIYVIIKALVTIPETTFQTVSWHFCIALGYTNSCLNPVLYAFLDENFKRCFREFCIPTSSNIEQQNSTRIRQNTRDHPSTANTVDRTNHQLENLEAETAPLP
Experiment [2] deals with CHO. Put plainly: Selectivity ratio, ratio of Ke for human kappa opioid receptor over-expressed in CHO cell membrane to Ke for human delta opioid receptor over-expressed in CHO cell membrane. The experiment is classed as cell-based.
Experiment [3] addresses Kappa-type opioid receptor (Homo sapiens) (UniProt P41145). The experiment in a line: Agonist activity at human kappa opioid receptor over-expressed in CHO cell membrane after 1 hr by [35S]GTPgammaS binding assay. The experiment is classed as functional, cell membranes.
Experiment [4] deals with T1, Delta-type opioid receptor (Homo sapiens, UniProt P41143). Put plainly: Antagonist activity at human delta opioid receptor over-expressed in CHO cell membrane assessed as inhibition of DPDPE-induced [35S]GTPgammaS binding at 10 uM after 1 hr by scintillation counting method. It is filed as functional, cell membranes.
T1 sequence (P41143 whole entry): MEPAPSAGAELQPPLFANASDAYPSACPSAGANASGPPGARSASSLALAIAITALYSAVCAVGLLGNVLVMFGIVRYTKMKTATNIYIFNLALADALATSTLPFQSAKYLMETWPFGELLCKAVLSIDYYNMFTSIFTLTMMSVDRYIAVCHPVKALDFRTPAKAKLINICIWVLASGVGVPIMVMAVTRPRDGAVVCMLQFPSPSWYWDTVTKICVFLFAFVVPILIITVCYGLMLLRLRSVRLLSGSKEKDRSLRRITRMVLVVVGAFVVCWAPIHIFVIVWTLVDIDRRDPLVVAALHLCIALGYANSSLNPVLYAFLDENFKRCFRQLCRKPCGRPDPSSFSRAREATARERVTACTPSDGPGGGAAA
In experiment [5] the target is Mu-type opioid receptor (Homo sapiens) (UniProt P35372). Put plainly: Antagonist activity at human mu opioid receptor over-expressed in CHO cell membrane assessed as inhibition of DAMGO-induced [35S]GTPgammaS binding at 10 uM after 1 hr by scintillation counting method. It is filed as functional, cell membranes.
The target of experiment [6] is T1, Delta-type opioid receptor. The experiment in a line: Agonist activity at human delta opioid receptor over-expressed in CHO cell membrane after 1 hr by [35S]GTPgammaS binding assay. It is filed as functional, cell membranes.
Experiment [7] relates to CHO. The experiment in a line: Selectivity ratio, ratio of Ke for human mu opioid receptor over-expressed in CHO cell membrane to Ke for human delta opioid receptor over-expressed in CHO cell membrane. The experiment is classed as cell-based.
The target in experiment [8] is Kappa-type opioid receptor (Homo sapiens) (UniProt P41145). The experiment in a line: Antagonist activity at human kappa opioid receptor over-expressed in CHO cell membrane assessed as inhibition of U69,593-induced [35S]GTPgammaS binding at 10 uM after 1 hr by scintillation counting method. It is filed as functional, cell membranes. A general note: GTPγS is a poorly hydrolysed GTP analogue; its binding reports G protein activation.
Sequence of Kappa-type opioid receptor (Homo sapiens) (P41145 whole entry): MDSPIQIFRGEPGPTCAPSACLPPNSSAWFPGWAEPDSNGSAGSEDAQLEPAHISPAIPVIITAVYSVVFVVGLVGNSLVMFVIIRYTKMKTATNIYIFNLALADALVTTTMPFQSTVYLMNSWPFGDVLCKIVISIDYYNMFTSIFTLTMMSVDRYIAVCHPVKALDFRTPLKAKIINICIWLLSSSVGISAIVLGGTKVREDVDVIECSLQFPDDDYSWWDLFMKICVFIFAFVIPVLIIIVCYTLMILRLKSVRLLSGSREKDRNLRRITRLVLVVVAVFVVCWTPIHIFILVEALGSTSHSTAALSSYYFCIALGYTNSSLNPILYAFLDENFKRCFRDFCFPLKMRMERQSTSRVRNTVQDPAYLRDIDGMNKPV

Broadly, the pEC50 is the EC50 on a negative log10 scale, so that one unit is a factor of ten. A low value points to a large EC50. For `COc1cc(/C=C/c2ccc(O)c(O)c2CC=C(C)C)c(C/C=C(\C)CCC=C(C)C)c(OC)c1`, the outcome in experiment [1] and in experiment [3] was inactive. Moreover, the Ratio Ke in the experiment on CHO [2] and with CHO [7] was greater than 400 throughout. Further, the Ke in experiment [4] is 0.025 µM; in experiment [5], greater than 10 µM; in experiment [8], greater than 10 µM. In experiment [6], the pEC50 is 5.18.
